Reference: patent US9696323B2, “Biomarkers for chagas disease related cardiomyopathy” (THE BOARD OF REGENTS OF THE UNIVERSITY OF TEXAS SYSTEM, priority 2013, dated 2017)

Columns and labels:
T. cruzi [1] = experiment: 2D-GE plasma proteome profile (differential protein expression) of T. cruzi-infected rats treated with PBN and/or BZ; type: in vivo, rat; conditions: plasma, RCP/RCB/RCPB groups (chronic infection)
Text: Certain embodiments include biomarkers identified in a previous study. Parasite persistence and oxidative damage in the heart are known to be of pathological significance during Chagas disease (Zacks et al., (2005) An Acad Bras Cienc, 77, 695-715; Gupta et al., (2009) Interdiscip Perspect Infect Dis, 2009, 190354). […] In the previous study the inventors identified 92 proteins that were differentially expressed or oxidized in chagasic plasma. Functional analysis allocated a majority of these proteins to inflammation/immunity and lipid metabolism categories, and to molecular pathways associated with cardiovascular dysfunction, e.g., myocardial infarction, hypertrophy, and fibrosis, and pulmonary embolism and hypertension. Some proteins in chagasic rats treated with PBN and/or BZ were allocated to curative pathways (immune regulation and cardiac remodeling). The 2D-GE results were validated by Western blotting. […] Increased plasma levels of GSN, MYL2, and VIM were directly correlated with the severity of cardiac disease in human chagasic patients. […] These findings have utility in diagnosing disease severity and designing suitable therapy for management of human chagasic patients.
Ingenuity Pathway Analysis (IPA) is a highly curated and comprehensive software used for the integration of proteins into networks and pathways with biological meaning (Thomas and Bonchev, (2010). Hum Genomics, 4, 353-360). Network analysis of the plasma proteome profile of chagasic rats identified four major sub-networks linked to host response to T. cruzi infection and disease development (Table V). The maximal numbers of the differentially expressed plasma proteins (19 proteins) in chagasic rats were associated with antigen presentation and inflammatory response category (Table V) and indicators of persistent inflammation, known to be of pathological significance in Chagas disease (Dhiman et al., (2009) Clinical and Vaccine Immunology, 16, 660-666; Tanowitz et al., (2009) Prog Cardiovasc Dis, 51, 524-539; Junqueira et al., (2010) Expert Rev Mol Med, 12, e29). Following functional analysis of the inflammation-associated proteins, 12 proteins (APOA1, APOE, C3, CFB, CFH, FGB, GSN, KRT10, PLG, SCG2, SERPINA1, and SERPINC1) were identified as being involved in immune cell trafficking and cell movement of leukocytes, granulocytes, phagocytes, neutrophils, and dendritic and antigen presenting cells. Some of the differentially expressed proteins in inflammation category were associated with activation (APOE, C3, CFH, GC and PLG), chemotaxis (C3, SCG2, SERPINA1, SERPINC1), and infiltration of leukocytes (APOA1, APOE, C3, PLG, KRT10) and neutrophils (C3, CFB, CFH, PLG). Up regulation of APOE, APOA1, APOH, GC and PLG in chagasic plasma was indicative of activation, binding and accumulation of macrophages in the disease state. Of the 19 differentially expressed inflammation-associated proteins, 11 proteins (APOE, C3, CFB, CFH, GSN, KRT10, SCG2, SERPINA1, SERPINC1, GC, and PLG) were carbonylated in chagasic plasma. […] Other proteins (APOE, C3, KRT3, and SCG2) were exposed to oxidation due to T. cruzi-induced, acute oxidative stress, but were normalized in expression and oxidation during the chronic phase.
Seventeen of the differentially expressed proteins in chagasic plasma, i.e., AFM, C4BPA, CACNA1D, DLGAP2, GC, KNG1, MUG1, MYLPF, MY05A, MY05B, PRPH, PZP, RAI14, and SCG2, were allotted to the lipid metabolism/molecular transport/small molecule biochemistry category (Table V) and functionally linked by IPA network analysis to lipid, fatty acid, and carbohydrate metabolism. A majority of the proteins in this category, i.e., ALB, APOA1, APOA4, APOE, APOH, C3, GC, GNAQ, MY05A, PLG, SCD2, SERPINA1, SERPINC1 and VIM, were linked to the synthesis, metabolism, transport, and modification of lipids and fatty acids, and to uptake and release or efflux of lipids, eicosanoids, and cholesterol. […]

T. cruzi [2] = experiment: Oxidative modification (carbonylation) of plasma proteins in chagasic rats treated with PBN and/or BZ; type: in vivo, rat; conditions: infected rats, plasma proteins
Text: Certain embodiments include biomarkers identified in a previous study. Parasite persistence and oxidative damage in the heart are known to be of pathological significance during Chagas disease (Zacks et al., (2005) An Acad Bras Cienc, 77, 695-715; Gupta et al., (2009) Interdiscip Perspect Infect Dis, 2009, 190354). […] In the previous study the inventors identified 92 proteins that were differentially expressed or oxidized in chagasic plasma. Functional analysis allocated a majority of these proteins to inflammation/immunity and lipid metabolism categories, and to molecular pathways associated with cardiovascular dysfunction, e.g., myocardial infarction, hypertrophy, and fibrosis, and pulmonary embolism and hypertension. Some proteins in chagasic rats treated with PBN and/or BZ were allocated to curative pathways (immune regulation and cardiac remodeling). The 2D-GE results were validated by Western blotting. […] Increased plasma levels of GSN, MYL2, and VIM were directly correlated with the severity of cardiac disease in human chagasic patients. […] These findings have utility in diagnosing disease severity and designing suitable therapy for management of human chagasic patients. […]

T. cruzi [3] = conditions: infected rats; BZ parasite-induced, PBN oxidative stress-induced (Wen et al. 2006, 2010); cited from earlier work

For `O=C(Cn1ccnc1[N+](=O)[O-])NCc1ccccc1` [BZ], the “Spot# 34 Average Normalized Density × 100,000” value (T. cruzi [1]) was 0.37, the “Spot# 52, 54, 302 Average Normalized Density × 100,000” value (T. cruzi [1]) was 0.60 and the “Spot# 94 Average Normalized Density × 100,000” value (T. cruzi [1]) was 0.55. For the same molecule, the “Spot# 181 Average Normalized Density × 100,000” value (T. cruzi [1]) was 7.53, the “Spot# 586, 614 Average Normalized Density × 100,000” value (T. cruzi [1]) was 132.20 and the “Spot# 672 Average Normalized Density × 100,000” value (T. cruzi [1]) was 23.29. For the same molecule, the “Spot# 715 Average Normalized Density × 100,000” value (T. cruzi [1]) was 30.96, the “Spot# 745 Average Normalized Density × 100,000” value (T. cruzi [1]) was 2.30 and the preventing protein carbonylation (T. cruzi [2]) was “not effective in preventing protein carbonylation”. The “controlling parasite- and oxidative stress-induced pathology” value (T. cruzi [3]) was “beneficial effects”.
